The term EC50 denotes the concentration at which the effect is half-maximal.

29 molecules from patent US8906929B2, “Inhibitors of human immunodeficiency virus replication” (priority 2012, dated 2014) can be followed below.

The first test relates to recombinant NL-Rluc virus. The experiment in a line: Inhibition of HIV replication (NL-RLuc virus in MT-2 cells, luciferase readout). Format: cell-based. Particulars: 5 days of incubation, 10% FBS.
For the molecule `Cc1nc2cc3nn2c(c1[C@H](OC(C)(C)C)C(=O)O)-c1ccc2c(c1)C(CCCCCc1ccccc1-c1cccc-3c1)CCO2` (single isomer, unassigned) [Example 8], the EC50 was determined as 51 nM.
Still for that read-out and setting: for `Cc1nc2cc3nn2c(c1[C@H](OC(C)(C)C)C(=O)O)-c1ccc2c(c1)C(CCCCCc1ccccc1-c1cccc-3c1)CCO2` (single isomer, unassigned) [Example 9] the value was 3680 nM.
Still for that read-out and setting: for `Cc1nc2cc3nn2c(c1[C@H](OC(C)(C)C)C(=O)O)-c1ccc2c(c1)C(CCCCc1ccccc1-c1cccc-3c1)CCO2` (single isomer, unassigned) [Example 10] the value was 237 nM; for `Cc1nc2cc3nn2c(c1[C@H](OC(C)(C)C)C(=O)O)-c1ccc2c(c1)C(CCCCc1ccccc1-c1cccc-3c1)CCO2` (single isomer, unassigned) [Example 11], 1270 nM.
The same measure, in the same setting: next, `Cc1ccc2c(c1)-c1cccc(c1)-c1cc3nc(C)c([C@H](OC(C)(C)C)C(=O)O)c(n3n1)N1CCC(C)(CC1)OCCCC(C)C(C)O2` (single isomer, unassigned) [Example 92]: 968 nM; `Cc1ccc2c(c1)-c1cccc(c1)-c1cc3nc(C)c([C@H](OC(C)(C)C)C(=O)O)c(n3n1)N1CCC(C)(CC1)OCCCC(C)C(C)O2` (single isomer, unassigned) [Example 93]: 95 nM.
Take `Cc1ccc2c(c1)-c1cccc(c1)-c1cc3nc(C)c([C@H](OC(C)(C)C)C(=O)O)c(n3n1)N1CCC(C)(CC1)OCCCC(C)C(C)O2` (single isomer, unassigned) [Example 94]: the EC50 stood at 35 nM.
Turning to `Cc1ccc2c(c1)-c1cccc(c1)-c1cc3nc(C)c([C@H](OC(C)(C)C)C(=O)O)c(n3n1)N1CCC(C)(CC1)OCCCC(C)C(C)O2` (single isomer, unassigned) [Example 95], the EC50 came out at 36 nM.
Same read-out and setting: next, `Cc1ccc2c(c1)-c1cccc(c1)-c1cc3nc(C)c([C@H](OC(C)(C)C)C(=O)O)c(n3n1)N1CCC(C)(CC1)OCCCC(C)CO2` (single isomer, unassigned) [Example 104]: 26 nM.

Staying with this test, now noted: Human immunodeficiency virus 1, MT2, 120 h, 5 days of incubation, 10% FBS.
Consider `Cc1nc2cc3nn2c(c1[C@H](OC(C)(C)C)C(=O)O)-c1ccc2c(c1)[C@H](CCCCOc1ccccc1-c1cccc-3c1)CCO2` (single isomer, unassigned) [Example 12], for which the EC50 was determined as 7 nM.
Regarding `Cc1nc2cc3nn2c(c1[C@H](OC(C)(C)C)C(=O)O)-c1ccc2c(c1)[C@@H](CCCCOc1ccccc1-c1cccc-3c1)CCO2` (single isomer, unassigned) [Example 13], the EC50 was determined as 216 nM.
The same measure, in the same setting: next, `Cc1nc2cc3nn2c(c1[C@H](OC(C)(C)C)C(=O)O)-c1ccc2c(c1)[C@@H](CC=CCOc1ccccc1-c1cccc-3c1)CCO2` (single isomer, unassigned) [Example 14]: 383 nM; `Cc1nc2cc3nn2c(c1[C@H](OC(C)(C)C)C(=O)O)-c1ccc2c(c1)[C@H](CC=CCOc1ccccc1-c1cccc-3c1)CCO2` (single isomer, unassigned) [Example 15]: 4 nM; `Cc1nc2cc3nn2c(c1[C@H](OC(C)(C)C)C(=O)O)N1CCC(C)(CC1)OCC=C[C@@H](C)Oc1ccccc1-c1cccc-3c1` (single isomer, unassigned) [Example 22]: 36 nM.
Consider `Cc1ccc2c(c1)-c1cccc(c1)-c1cc3nc(C)c([C@H](OC(C)(C)C)C(=O)O)c(n3n1)N1CCC(C)(CC1)OCCCC(C)CO2` (single isomer, unassigned) [Example 103], for which the EC50 was 25 nM.
For the molecule `Cc1nc2cc3nn2c(c1[C@H](OC(C)(C)C)C(=O)O)-c1ccc2c(c1Cl)N(C/C=C\CCc1cccc(c1)-c1cccc-3c1)CCO2` [Example 1, (2S)-2-(tert-Butoxy)-2-[(22Z)-32-chloro-4-methyl-28-oxa-5,7,8,25-tetraazaheptacyclo[23.6.2.1^6,^9.1^10,^14.1^15,^19.0^2,^7.0^29,^33]hexatriaconta-1(31),2,4,6(36),8,10(35), 11,13,15(34), 16,18,22,29,32-tetradecaen-3-yl]acetic acid], the EC50 amounted to 853 nM.
As to `Cc1nc2cc3nn2c(c1[C@H](OC(C)(C)C)C(=O)O)-c1ccc2c(c1Cl)N(C/C=C/CCc1cccc(c1)-c1cccc-3c1)CCO2` [Example 2, (2S)-2-(tert-Butoxy)-2-[(22E)-32-chloro-4-methyl-28-oxa-5,7,8,25-tetraazaheptacyclo[23.6.2.1^6,^9.1^10,^14.1^15,^19.0^2,^7.0^29,^33]hexatriaconta-1 (31), 2,4,6(36),8,10(35), 11, 13, 15(34), 16,18,22,29,32-tetradecaen-3-yl]acetic acid], the EC50 was determined as 722 nM.
With `Cc1nc2cc3nn2c(c1[C@H](OC(C)(C)C)C(=O)O)-c1ccc2c(c1Cl)N(CCCCOc1cccc(c1)-c1cccc-3c1)CCO2` [Example 3, (2S)-2-(tert-Butoxy)-2-{32-chloro-4-methyl-20,28-dioxa-5,7,8,25-tetraazaheptacyclo[23.6.2.1^6,^9.1^10,^14.1^15,^19.0^2,^7.0^29,^33]hexatriaconta-1(31), 2,4, 6(36), 8, 10(35), 11, 13, 15 (34), 16,18,29,32-tridecaen-3-yl}acetic acid], the EC50 worked out at 418 nM.
On the same count and under the same terms, for `Cc1nc2cc3nn2c(c1[C@H](OC(C)(C)C)C(=O)O)-c1ccc2c(c1Cl)N(CC=CCCc1ccccc1-c1cccc-3c1)CCO2` [Example 4] the value was 125 nM; for `Cc1nc2cc3nn2c(c1[C@H](OC(C)(C)C)C(=O)O)-c1ccc2c(c1Cl)N(CCCCCCOc1ccccc1-c1cccc-3c1)CCO2` [Example 5, (2S)-2-(tert-Butoxy)-2-{35-chloro-4-methyl-21,31-dioxa-5,7,8,28-tetraazaheptacyclo[26.6.2.1^6,^9.1^10,^14.0^2,^7.0^15,^200^32,36]octatriaconta-1(34),2,4,6(38),8,10(37), 11, 13, 15 (20), 16,18,32,35-tridecaen-3-yl}acetic acid], 30 nM.
As for `Cc1nc2cc3nn2c(c1[C@H](OC(C)(C)C)C(=O)O)-c1cc2c(cc1F)OCCN2CCCCCc1ccccc1-c1cccc-3c1` [Example 6, (2S)-2-(tert-Butoxy)-2-{32-fluoro-4-methyl-29-oxa-5,7,8,26-tetraazaheptacyclo[24.6.2.1^6,^9.1^10,^14.0^2,^7.0^15,^20.0^30,^34]hexatriaconta-1(32),2,4,6(36),8,10(35), 11, 13, 15(20), 16,18,30,33-tridecaen-3-yl}acetic acid], the EC50 amounted to 54 nM.
For `Cc1cc2c3cc1-c1c([C@H](OC(C)(C)C)C(=O)O)c(C)nc4cc(nn14)-c1cccc(c1)-c1ccccc1CCCCCN3CCO2` [Example 7, (2S)-2-(tert-Butoxy)-2-{4,32-dimethyl-29-oxa-5,7,8,26-tetraazaheptacyclo[24.6.2.1^6,^9.1^10,^14.0^2,^7.0^15,^200^30,^34]hexatriaconta-1(32), 2,4,6(36),8,10(35), 11, 13, 15(20), 16,18,30,33-tridecaen-3-yl}acetic acid], the EC50 was 3510 nM.
Same read-out and setting: for `Cc1nc2cc3nn2c(c1[C@H](OC(C)(C)C)C(=O)O)-c1cc(F)c2c(c1)N(CCCCCc1ccccc1-c1cccc-3c1)CCO2` [Example 16, (2S)-2-(tert-Butoxy)-2-{31-fluoro-4-methyl-29-oxa-5,7,8,26-tetraazaheptacyclo[24.6.2.1^6,^9.1^10,^14.0^2,^7.0^15,^20.0^30,^34]hexatriaconta-1(32),2,4,6(36),8,10(35), 11, 13, 15(20),16,18,30,33-tridecaen-3-yl}acetic acid] the value was 177 nM.
The same measure, in the same setting: next, `Cc1nc2cc3nn2c(c1[C@H](OC(C)(C)C)C(=O)O)-c1ccc2c(c1Cl)N(CCCCCc1ccccc1-c1cccc-3c1)CCO2` [Example 17, (2S)-2-(tert-Butoxy)-2-{33-chloro-4-methyl-29-oxa-5,7,8,26-tetraazaheptacyclo[24.6.2.1^6,^9.1^10,^14.0^2,^7.0^15,^20.0^30,^34]hexatriaconta-1(32),2,4,6(36),8,10(35), 11,13,15(20),16,18,30,33-tridecaen-3-yl}acetic acid]: 145 nM.
Consider `Cc1nc2cc3nn2c(c1[C@H](OC(C)(C)C)C(=O)O)N1CCC(C)(CC1)OCC=CCCc1ccccc1-c1cccc-3c1` [Example 18, (2S)-2-(tert-Butoxy)-2-[4,27-dimethyl-26-oxa-1,5,7,8-tetraazahexacyclo[25.2.2.1^6,^9.1^10,^14.0^2,^7.0^15,^20]tritriaconta-2,4,6(33),8,10(32),11,13,15(20),16,18,23-undecaen-3-yl]acetic acid], for which the EC50 turned out to be 16 nM.
Still for that read-out and setting: for `Cc1nc2cc3nn2c(c1[C@H](OC(C)(C)C)C(=O)O)N1CCC(C)(CC1)OCCCCCc1ccccc1-c1cccc-3c1` [Example 19, (2S)-2-(tert-Butoxy)-2-{4,27-dimethyl-26-oxa-1,5,7,8-tetraazahexacyclo[25.2.2.1^6,^9.1^10,^14. 0^2,^7. 0^15,^20]-tritriaconta-2,4,6(33),8,10(32),11,13,15(20),16,18-decaen-3-yl}acetic acid] the value was 21 nM; for `Cc1nc2cc3nn2c(c1[C@H](OC(C)(C)C)C(=O)O)N1CCC(C)(CC1)OC/C=C/COc1ccccc1-c1cccc-3c1` [Example 20, (2S)-2-(tert-Butoxy)-2-[(23E)-4,27-dimethyl-21,26-dioxa-1,5,7,8-tetraazahexacyclo[25.2.2.1^6,^9.1^10,^14.0^2,^7.0^15,^20]tritriaconta-2,4,6(33),8,10(32),11,13,15(20),16,18,23-undecaen-3-yl]acetic acid], 5 nM.
Turning to `Cc1nc2cc3nn2c(c1[C@H](OC(C)(C)C)C(=O)O)N1CCC(C)(CC1)OCCCCOc1ccccc1-c1cccc-3c1` [Example 21, (2S)-2-(tert-Butoxy)-2-{4,27-dimethyl-21,26-dioxa-1,5,7,8-tetraazahexacyclo[25.2.2.1^6,^9.1^10,^14.0^2,^7.0^15,^20]-tritriaconta-2,4, 6(33), 8, 10(32), 11, 13, 15(20),16,18-decaen-3-yl}acetic acid], the EC50 is 7 nM.
On the same count and under the same terms, next, `Cc1nc2cc3nn2c(c1[C@H](OC(C)(C)C)C(=O)O)N1CCC(C)(CC1)OCC=C[C@H](C)Oc1ccccc1-c1cccc-3c1` [Example 23, (2S)-2-(tert-Butoxy)-2-[(22S)-4,22,27-trimethyl-21,26-dioxa-1,5,7,8-tetraazahexacyclo[25.2.2.1^6,^9.1^10,^14.0^2,^7.0^15,^20]tritriaconta-2,4,6(33),8,10(32),11,13,15(20),16,18,23-undecaen-3-yl]acetic acid]: 11 nM.
